The test system of this experiment is EpiAirway™ Cell Membrane (mucosal epithelial cell layer). In words: Transepithelial electrical resistance (TER), EpiAirway in vitro epithelial tissue model. It is filed as cell-based. To be noted: for TER(x)/TER(159) +/− SEM*: mean values from multiple repeats. From the text:
One “kit” consists of 24 units.
A. Respiratory airway epithelial cells form tight junctions in vivo as well as in vitro, and thereby restrict the flow of solutes across the tissue. These junctions confer a transepithelial resistance of several hundred ohms×cm^2 in excised airway tissues. In the MatTek EpiAirway™ units, the transepithelial electrical resistance (TER) is reported by the manufacturer to be routinely around 1000 ohms×cm^2. […] The porous membrane-bottomed units without cells, conversely, provide only minimal transmembrane resistance (approximately 5-20 ohms×cm^2).
B. Accurate determinations of TER require that the electrodes of the ohmmeter be positioned over a significant surface area above and below the membrane, and that the distance of the electrodes from the membrane be reproducibly controlled. The method for TER determination recommended by MatTek and employed for all experiments herein employs an “EVOM”™ epithelial voltohmmeter and an “ENDOHM”™ tissue resistance measurement chamber from World Precision Instruments, Inc., Sarasota, Fla.
D. Determinations of TER are made with 1.5 mL of PBS in the chamber and 350 μL of PBS in the membrane-bottomed unit being measured. The top electrode is adjusted to a position just above the membrane of a unit containing no cells (but containing 350 μL of PBS) and then fixed to ensure reproducible positioning. The resistance of a cell-free unit is typically 5-20 ohms×cm^2 (“background resistance”).
G. The unit is gently blotted free of excess PBS on its exterior surface only before being placed into the chamber (containing a fresh 1.5 mL aliquot of PBS). An aliquot of 350 μL PBS is added to the unit before the top electrode is placed on the chamber and the TER is read on the EVOM meter.
I. The units are read in the following sequence: all sham-treated controls, followed by all formulation-treated samples, followed by a second TER reading of each of the sham-treated controls. All TER values are reported as a function of the surface area of the tissue.
TER was calculated as: TER=(R1−Rb)×A Where R1 is resistance of the insert with a membrane, Rb is the resistance of the blank insert, and A is the area of the membrane (0.6 cm^2). The effect of pharmaceutical formulations comprising intranasal delivery-enhancing agents, for example, permeabilizing peptides as measured by TER across the EpiAirway™ Cell Membrane (mucosal epithelial cell layer). Permeabilizing peptides are applied to the EpiAirway™ Cell Membrane at a concentration of 1.0 mM. A decrease in TER value relative to the control value (control=approximately 1000 ohms-cm^2; normalized to 100.) indicates a decrease in cell membrane resistance and an increase in mucosal epithelial cell permeability.
The formulation pH was fixed at 4.5.

The values below come from patent US20060062758A1, “Tight junction modulator peptide PN159 for enhanced mucosal delivery of therapeutic compounds” (Nastech Pharmaceutical Comapny Inc., priority 2004, published 2006).

Turning to `CC(C)C[C@H](NC(=O)[C@H](C)NC(=O)[C@H](CCCCN)NC(=O)[C@H](CC(C)C)NC(=O)[C@H](C)NC(=O)[C@H](CC(C)C)NC(=O)[C@H](CCCCN)NC(=O)[C@H](CC(C)C)NC(=O)[C@H](C)NC(=O)[C@H](CC(C)C)NC(=O)[C@@H](N)CCCCN)C(=O)N[C@@H](CCCCN)C(=O)N[C@@H](C)C(=O)N[C@@H](C)C(=O)N[C@@H](CC(C)C)C(=O)N[C@@H](CCCCN)C(=O)N[C@@H](CC(C)C)C(=O)N[C@@H](C)C(N)=O` [PN159], the “TER reduction (in words)” value (Example 2, PTH formulation study, applied to apical side) is “Higher TER reduction was observed with increasing PN159 concentration”. Further, the “TER(x)/TER(159) +/− SEM*” value (Example 7, length changes, relative to PN159) is listed as 1.00 +/− 0.14 and the “TER(x)/TER(159) +/− SEM*” value (Table 9, hydrophobic faces, relative to PN159) is listed as 1.00 +/− 0.14. Further, under “Table 6, D-amino acid substitutions, relative to PN159”, the “TER(x)/TER(159) +/− SEM” value is reported as 1.00 +/− 0.14. Further, for the setting “Table 8, amino acid substitutions, relative to PN159”, the “Relative TER Decrease” value worked out at 1.0.
